Laboratory results published in US20190307843A1, “SINGLE DOSE METHODS FOR PREVENTING AND TREATING FUNGAL INFECTIONS” (Cidara Therapeutics, Inc., priority 2016, published 2019).
Starred links: 1 amine or outer side, 2 acyl side, 3 side chain; linkers in the order of their positions; H or OH if unused. Positions of bridges follow the written chain, without caps; N, C: chain ends. Non-standard residues stand in square brackets, D forms with d. Residues, ends and D or L forms follow the SMILES beside them. *: point of attachment. Orn(4R-OH,5R-OCH2CH2NMe3+) = C[N+](C)(C)CCO[C@@H](N[*:3])[C@H](O)C[C@H](N[*:1])C(=O)[*:2]; pTerphenylCO(4''-OnC5H11) = CCCCCOc1ccc(-c2ccc(-c3ccc(C(=O)*)cc3)cc2)cc1; hTyr(3S-OH,4S-OH) = N[C@H](C(=O)O)[C@H](O)[C@@H](O)c1ccc(O)cc1; Pro(3S-OH,4S-Me) = C[C@H]1CN[C@H](C(=O)O)[C@H]1O; Hyp = O=C(O)[C@@H]1C[C@@H](O)CN1

What was measured:
C. albicans strain 529L = assay: Rat model of vulvovaginal candidiasis, vaginal lavage and tissue burden; format: in vivo, Candida albicans; details: for Group Geometric mean / Log Group Geometric mean / Log reduction from vehicle control: 10 mg/kg SC Dosed Once
[1] = format: in vivo, rat; details: all treatment dose and duration
Protocol: The rats were monitored at a frequency appropriate for their clinical condition. Rat weights were recorded at least once daily to ensure animals remained within ethical limits.

[2] = Pharmacokinetic profile in female rats, 10 mg/kg IV and SC; details: rat, in vivo
From the text: The pharmacokinetic (PK) profile of CD101 in female rats (three per group) was characterized.

A. fumigatus AF293 [3] = assay: Murine model of pulmonary aspergillosis (Example 19), terminal lung burden; format: in vivo, Aspergillus fumigatus
Protocol: A secondary endpoint for the study was terminal lung tissue burden. Immediately following confirmation of death, carcasses were frozen at −20° C. prior to tissue dissection and processing. The frozen carcasses were thawed at room temperature, the lungs removed and placed into pre-weighed bead-beating tubes containing 2 mL of PBS and subjected to mechanical disruption. Organ homogenates were diluted further in PBS and quantitatively cultured for A. fumigatus onto SABC and incubated at 30° C. for 24-48 hours.
2. Lung tissue burden data were analysed using the non-parametric Kruskal-Wallis test and if this was statistically significant all pairwise comparisons were analyzed (Conover-Inman).

[4] = system: A. fumigatus strain AF293; assay: Murine model of pulmonary aspergillosis (Example 13), survival
A. fumigatus AF293 [5] = assay: Murine model of pulmonary aspergillosis (Example 19), survival; details: for survival time post infection, range / Mean Survival / Median Survival: 1 day pre-infection; for mice surviving to the end of the study: 6/treatment group, 10 days
[6] = terminal vaginal tissue Day +9 post infection
[7] = CD101 5mpk Day −3 vs. CD101 5mpk Day −5
[8] = CD101 5mpk Day −5 vs. CD101 10mpk Day −5
[9] = CD101 5mpk Day −5 vs. CD101 20mpk Day −5
[10] = CD101 20mpk Day −1 vs. CD101 20mpk Day −3
[11] = Micafungin 2mpk Day −1 vs. CD101 10mpk Day −1
[12] = Micafungin 2mpk Day −1 vs. CD101 20mpk Day −1
[13] = CD101 20 mg/kg IP once, 20 mg/kg
[14] = CD101 60 mg/kg IP once, 60 mg/kg

CCCCCOc1ccc(-c2ccc(-c3ccc(C(=O)N[C@H]4C[C@@H](O)[C@@H](OCC[N+](C)(C)C)NC(=O)[C@@H]5[C@@H](O)[C@@H](C)CN5C(=O)[C@H]([C@@H](C)O)NC(=O)[C@H]([C@H](O)[C@@H](O)c5ccc(O)cc5)NC(=O)[C@@H]5C[C@@H](O)CN5C(=O)[C@H]([C@@H](C)O)NC4=O)cc3)cc2)cc1 [CD101] ({pTerphenylCO(4''-OnC5H11)}-[Orn(4R-OH,5R-OCH2CH2NMe3+)]T[Hyp][hTyr(3S-OH,4S-OH)]T[Pro(3S-OH,4S-Me)]; lactam 1-C)
Group Geometric mean (C. albicans strain 529L; lavage Day 5 post infection): 1.73 CFU/mL | Log Group Geometric mean (C. albicans strain 529L; lavage Day 5 post infection): 0.24 CFU/mL | Group Geometric mean (C. albicans strain 529L; lavage Day 7 post infection): 2.59 CFU/mL | Log Group Geometric mean (C. albicans strain 529L; lavage Day 7 post infection): 0.41 CFU/mL | Log reduction from vehicle control (C. albicans strain 529L; lavage Day 7 post infection): 3.77 CFU/mL | Group Geometric mean (C. albicans strain 529L; lavage Day 9 post infection): 2.75 CFU/mL | Log Group Geometric mean (C. albicans strain 529L; lavage Day 9 post infection): 0.44 CFU/mL | Log reduction from vehicle control (C. albicans strain 529L; lavage Day 9 post infection): 3.86 CFU/mL | Group Geometric mean (C. albicans strain 529L; [6]): 5.52 CFU/g | Log Group Geometric mean (C. albicans strain 529L; [6]): 0.74 CFU/g | Log reduction from vehicle control (C. albicans strain 529L; [6]): 4.75 CFU/g | burden reduction (C. albicans strain 529L; CD101 5 mg/kg once or twice, lavage Day 5 post infection): about 1 Log10 CFU/m | rats having burden below the limit of detection (C. albicans strain 529L; CD101 10 mg/kg dosed once, lavage Day 5 post infection): 5/6 | rats with burdens below the levels of detection (C. albicans strain 529L; CD101 10 mg/kg dosed once, terminal vaginal tissue Day 9): 5/6 | reduction in burden (C. albicans strain 529L; all doses of CD101, lavage Day 2 post infection): about 1.3 Log10 CFU/mL | tolerability [1]: well tolerated with no adverse events observed | Tmax ([2]; SC administration): 8 to 24 h | half-life ([2]; SC, read-out: t½ (converted)): 48 h | bioavailability ([2]; sc): 97% | Group Geometric mean (lung burden) (A. fumigatus AF293 [3]; CD101 20 mg/kg IP Day −1): 4.37 × 10^3 CFU/g | Log10 Group Geometric mean (lung burden) (A. fumigatus AF293 [3]; CD101 20 mg/kg IP Day −1): 3.64 CFU/g | Log10 reduction from vehicle control (A. fumigatus AF293 [3]; CD101 20 mg/kg IP Day −1): 0.53 CFU/g | Group Geometric mean (lung burden) (A. fumigatus AF293 [3]; CD101 60 mg/kg IP Day −1): 1.38 × 10^4 CFU/g | Log10 Group Geometric mean (lung burden) (A. fumigatus AF293 [3]; CD101 60 mg/kg IP Day −1): 4.14 CFU/g | Log10 reduction from vehicle control (A. fumigatus AF293 [3]; CD101 60 mg/kg IP Day −1): 0.03 CFU/g | Mean Survival ([4]; CD101 5 mg/kg IP Day 0): 67.8 h | Median Survival ([4]; CD101 5 mg/kg IP Day 0): 64.6 h | Mean Survival ([4]; CD101 5 mg/kg IP Day −1): 72.1 h | Median Survival ([4]; CD101 5 mg/kg IP Day −1): 67.6 h | Mean Survival ([4]; CD101 5 mg/kg IP Day −3): 70.0 h | Median Survival ([4]; CD101 5 mg/kg IP Day −3): 67.7 h | Mean Survival ([4]; CD101 5 mg/kg IP Day −5): 65.3 h | Median Survival ([4]; CD101 5 mg/kg IP Day −5): 65.3 h | Mean Survival ([4]; CD101 10 mg/kg IP Day −1): 121.8 h | Median Survival ([4]; CD101 10 mg/kg IP Day −1): 81.0 h | Mean Survival ([4]; CD101 10 mg/kg IP Day −3): 76.9 h | Median Survival ([4]; CD101 10 mg/kg IP Day −3): 73.4 h | Mean Survival ([4]; CD101 10 mg/kg IP Day −5): 67.2 h | Median Survival ([4]; CD101 10 mg/kg IP Day −5): 65.7 h | Mean Survival ([4]; CD101 20 mg/kg IP Day −1): 155.6 h | Median Survival ([4]; CD101 20 mg/kg IP Day −1): 72.3 h | Mean Survival ([4]; CD101 20 mg/kg IP Day −3): 91.9 h | Median Survival ([4]; CD101 20 mg/kg IP Day −3): 69.8 h | Mean Survival ([4]; CD101 20 mg/kg IP Day −5): 75.5 h | Median Survival ([4]; CD101 20 mg/kg IP Day −5): 69.8 h | Log-Rank test, survival [4, 7]: 0.0183 | Peto-Prentice (Wilcoxon) test, survival [4, 7]: 0.0426 | Log-Rank test, survival [4, 8]: 0.0009 | Peto-Prentice (Wilcoxon) test, survival [4, 8]: 0.0015 | Log-Rank test, survival [4, 9]: 0.0009 | Peto-Prentice (Wilcoxon) test, survival [4, 9]: 0.0015 | Log-Rank test, survival [4, 10]: 0.0387 | Peto-Prentice (Wilcoxon) test, survival [4, 10]: 0.033 | Peto-Prentice (Wilcoxon) test, survival ([4]; Micafungin 2mpk Day −1 vs. CD101 5mpk Day −1): 0.0467 | Log-Rank test, survival [4, 11]: 0.0201 | Peto-Prentice (Wilcoxon) test, survival [4, 11]: 0.0191 | Log-Rank test, survival [4, 12]: 0.0047 | Peto-Prentice (Wilcoxon) test, survival [4, 12]: 0.0067 | Log-Rank test, survival ([4]; Vehicle vs. CD101 20mpk Day −1): NS (0.0533) | Peto-Prentice (Wilcoxon) test, survival ([4]; Vehicle vs. CD101 20mpk Day −1): 0.0465 | survival time post infection, range (A. fumigatus AF293 [5]; CD101 20 mg/kg IP once): 70 to 240 h | Mean Survival (A. fumigatus AF293 [5]; [13]): 130.4 h | Median Survival (A. fumigatus AF293 [5]; [13]): 74.7 h | mice surviving to the end of the study (A. fumigatus AF293 [5]; CD101 20 mg/kg IP): Two mice survived to the end of the study | survival time post infection, range (A. fumigatus AF293 [5]; CD101 60 mg/kg IP once): 73-240 | Mean Survival (A. fumigatus AF293 [5]; [14]): 122.7 h | Median Survival (A. fumigatus AF293 [5]; [14]): 88.7 h | mice surviving to the end of the study (A. fumigatus AF293 [5]; CD101 60 mg/kg IP): A single mouse survived to the end of the study | survival (A. fumigatus AF293 [5]; CD101 20 and 60 mg/kg once one day pre-infection): slight increase in survival | animals completely cleared of CFU burden (Candida albicans SC5314; CD101 SC 1 mg/kg, by 24 hr): 4 of 5 | kidney CFU compared with the vehicle control (Candida albicans SC5314; CD101 SC 1, 3, and 10 mg/kg, 24 hr): significant reduction in kidney CFU | CFU clearance (Candida albicans SC5314; CD101 SC 3 or 10 mg/kg, 24 hr): complete CFU clearance
